Experimental data from US20260191196A1, “COMPOSITIONS AND METHODS FOR IMPROVING SOIL MICROBIAL POPULATIONS” (SYNGENTA CROP PROTECTION AG, priority 2022, published 2026).

Test system: soil fungal community
Assay: Plant associated soil microbiome: fungal community by ITS amplicon sequencing
Assay type: in vivo, tomato plants
Text: Differential abundance of fungal taxa after 97 days in treated soil, as detected by PCR amplification and successive high-throughput sequencing of fungal taxonomical marker genes (the small-subunit ribosomal RNA gene (16S) and the ribosomal internal transcribed spacers (ITS) respectively) on plant-associated soil samples.
To detect microbial community modifications in the soil microbiome associated with the cyclobutrifluram treatment against root knot nematodes, PCR amplification and successive high-throughput sequencing of bacterial and fungal taxonomical marker genes (the small-subunit ribosomal RNA gene (16S) and the ribosomal internal transcribed spacers (ITS) respectively) were performed on plant-associated soil samples.
Comparison of the fungal community of Control and RKN-Cyclobutrifluram plant-associated 5 soil samples highlighted a microbiome shift mainly characterised by the reduction of the plant-pathogen Fusarium, an ubiquitous pathogenic fungus that constitutes an abundant taxon in control soil. Fusarium relative abundance results reduced from 17.8% in control samples to 7.5% after cyclobutrifluram treatment. Table 1b reports fungal genera detected by ITS gene amplicon sequencing with taxonomy assignment at genus level; relative abundance in Control and Cyclobutrifluram treated samples statistically significative (Deseq2, p=0.1), the relative abundance variation.

[1] = Cyclobutrifluram treated plant-associated soil, RKN

For `O=C(N[C@@H]1CC[C@@H]1c1ccc(Cl)cc1Cl)c1cccnc1C(F)(F)F` (racemic) [Cyclobutrifluram, cyclobutrifluram], the “Relative abundance, Acremonium” value [1] was 0.214%, the “Relative abundance, Arthrinium” value [1] was 0.398% and the “Relative abundance, Candida” value [1] was 0.839%. For the same molecule, the “Relative abundance, Chrysosporium” value [1] was 17.327%, the “Relative abundance, Cladosporium” value [1] was 3.983% and the “Relative abundance, Conostachys” value [1] was 0.797%. For the same molecule, the “Relative abundance, Eleutherascus” value [1] was 0.217%, the “Relative abundance, Endoconidiophora” value [1] was 5.102% and the “Relative abundance, Fusarium” value [1] was 7.544%. For the same molecule, the “Relative abundance, Humicola” value [1] was 0.000%, the “Relative abundance, Lectera” value [1] was 1.767% and the “Relative abundance, Monocillium” value [1] was 0.083%. For the same molecule, the “Relative abundance, Mortierella” value [1] was 2.111%, the “Relative abundance, Mycosphaerella” value [1] was 1.672% and the “Relative abundance, Oidiodendron” value [1] was 0.292%. For the same molecule, the “Relative abundance, Paraphoma” value [1] was 0.043%, the “Relative abundance, Phialemonium” value [1] was 0.357% and the “Relative abundance, Pseudaleuria” value [1] was 1.936%. For the same molecule, the “Relative abundance, Pseudogymnoascus” value [1] was 0.870%, the “Relative abundance, Saitozyma” value [1] was 0.907% and the “Relative abundance, Schwanniomyces” value [1] was 0.017%. For the same molecule, the “Relative abundance, Sebacina” value [1] was 0.077%, the “Relative abundance, Solicoccozyma” value [1] was 0.407% and the “Relative abundance, Tetracladium” value [1] was 0.318%. For the same molecule, the “Relative abundance, Verticillium” value [1] was 0.571%, the “Relative abundance, Fusarium” value (Cyclobutrifluram treated plant-associated soil, RKN, listed as cyclobutrifluram) was 7.5% and the “relative abundance variation vs Control, Acremonium” value (Deseq2, p=0.1) was “+0.056%”. For the same molecule, the “relative abundance variation vs Control, Arthrinium” value (Deseq2, p=0.1) was “+0.293%”, the “relative abundance variation vs Control, Candida” value (Deseq2, p=0.1) was −0.269% and the “relative abundance variation vs Control, Chrysosporium” value (Deseq2, p=0.1) was “+2.918%”. For the same molecule, the “relative abundance variation vs Control, Cladosporium” value (Deseq2, p=0.1) was −1.949%, the “relative abundance variation vs Control, Conostachys” value (Deseq2, p=0.1) was “+0.132%” and the “relative abundance variation vs Control, Eleutherascus” value (Deseq2, p=0.1) was “+0.108%”. For the same molecule, the “relative abundance variation vs Control, Endoconidiophora” value (Deseq2, p=0.1) was “+2.581%”, the “relative abundance variation vs Control, Fusarium” value (Deseq2, p=0.1) was −10.274% and the “relative abundance variation vs Control, Humicola” value (Deseq2, p=0.1) was −0.112%. The “relative abundance variation vs Control, Lectera” value (Deseq2, p=0.1) was “+1.617%”, the “relative abundance variation vs Control, Monocillium” value (Deseq2, p=0.1) was “+0.070%” and the “relative abundance variation vs Control, Mortierella” value (Deseq2, p=0.1) was −0.412%. The “relative abundance variation vs Control, Mycosphaerella” value (Deseq2, p=0.1) was −0.541%, the “relative abundance variation vs Control, Oidiodendron” value (Deseq2, p=0.1) was “+0.054%” and the “relative abundance variation vs Control, Paraphoma” value (Deseq2, p=0.1) was −0.023%. The “relative abundance variation vs Control, Phialemonium” value (Deseq2, p=0.1) was −0.044%, the “relative abundance variation vs Control, Pseudaleuria” value (Deseq2, p=0.1) was “+1.181%” and the “relative abundance variation vs Control, Pseudogymnoascus” value (Deseq2, p=0.1) was “+0.550%”. For the same molecule, the “relative abundance variation vs Control, Saitozyma” value (Deseq2, p=0.1) was −0.038%, the “relative abundance variation vs Control, Schwanniomyces” value (Deseq2, p=0.1) was −0.005% and the “relative abundance variation vs Control, Sebacina” value (Deseq2, p=0.1) was −0.027%. For the same molecule, the “relative abundance variation vs Control, Solicoccozyma” value (Deseq2, p=0.1) was “+0.082%”, the “relative abundance variation vs Control, Tetracladium” value (Deseq2, p=0.1) was “+0.088%” and the “relative abundance variation vs Control, Verticillium” value (Deseq2, p=0.1) was “+0.156%”. The “effect on soil microbiome diversity (fungal taxa, FIG. 1)” value (apart from inhibiting Fusarium) was “preserves soil microbiome diversity” and the “relative abundance of the plant-pathogen Fusarium (in words)” value (soil of tomato plants in presence of RKN infestation, medium-long term) was “substantially reduced”.
